The values that follow come from US7605153B2, “Use of paullone derivatives for the production of medicaments for the treatment of mucoviscidosis and diseases related to protein addressing errors in cells” (Centre National de la Recherche Scientifique - CNRS, priority 2005, dated 2009).

Series [1] deals with T1, delF508-CFTR (Homo sapiens, UniProt P13569, DEL508-508).
T1 construct: CF15 human lung epithelial cells homozygous for the delF508 deletion; endogenous in cells; host or cells: CF15 human nasal/lung epithelial cells, homozygous delF508
In words: iodide efflux, delF508 addressing in CF15 cells. The format is cell-based. The following applies: for effect of known CFTR inhibitors on delF508 activity after treatment with kenpaullone: CF15 cells treated with kenpaullone, iodide transport; for delF508-CFTR activity (iodide efflux) normalised to MPB-91 standard treatment: CF15 cells treated 2 hrs at 37° C., stimulation 10 μM Forskoline+30 μM Genisteine, 250 μM MPB-91 for 2 hrs = 100%, alsterpaullone 100 μM. The method, then:
CF15 cells: CF15 cells are human nasal epithelial cells expressing the AF508-CFTR gene.
The cells are incubated in an appropriate medium in 24-well plates. […] The iodide equilibrates on either side of the cell membrane. The following steps are performed using a robot (MultiPROBE, Packard): the loading medium is rinsed with efflux medium in order to eliminate extracellular radioactivity. The supernatant is collected every minute into haemolysis tubes and the medium is replaced by an equivalent volume of medium (500 μl). No drug is added to the samples taken in the first three minutes in order to obtain a stable baseline characterising the passive exit of I ions. The 7 samples that follow are obtained in the presence of the molecule to be tested. At the end of the experiment, the cells are lysed by adding 500 μl of 0.1 N NaOH/0.1% SDS (30 min), which allows determining the level of radioactivity remaining inside the cell. The radioactivity present in the haemolysis tubes is measured as counts per minute (cpm) using a gamma counter (Cobra II, Packard). […] This iodide flux is represented by a graph. In order to quantify the iodide efflux due to administration of the tested molecule, the relative flux is calculated as follows in order to ignore the basal flux: Relative velocity (min^−1)=Rpeak−Rbasal. […] The results are presented in the form of a mean+/−SEM. Student's statistical test is used to compare the effect of the various drugs with the controls (the corresponding P<0.01 values are considered to be statistically significant).
The study of delF508-CFTR protein addressing is performed in the laboratory by using a combination of pharmacological, cellular imagery, biochemical and electrophysiological tests on CF15 human lung epithelial cells homozygous for the delF508 deletion. For each experiment, the addition of a cocktail (10 μM Forskoline+30 μM Genisteine) allows activation of the CFTR when the latter is localised at the membrane. This allows an iodide efflux to be observed if delF508 addressing has been restored.

The next series has as its system CHO-WT cells. In words: MTT cytotoxicity test. Format: cell-based, Chinese Hamster. Conditions: CHO-WT cells incubated 2 hrs, different concentrations. The method, then: CHO-WT cells: CHO (Chinese Hamster Ovary) cells are fibroblasts transfected with the wild-type CFTR gene (CFTR-WT). These cells will therefore overexpress the CFTR protein.
The MTT cytotoxicity test is a […] test based on the capacity of mitochondrial dehydrogenases to metabolise MTT (a yellow tetrazolium salt) into formazan (purple). The absorbance is proportional to the concentration of converted dye and can then be measured by spectrophotometry. The cells are incubated in 96-well microplates in the presence of the agent to be tested for 2 hours. Three controls are performed: 100% live cells: cells without any agent; 0% live cells: cells left under normal atmosphere; blank: medium without cells. The cells are rinsed with RPMI medium without phenol red in order for the colour of the medium not to interfere with absorbance measurements. They are then incubated for 4 hours with 100 μl RPMI solution supplemented with MTT (0.5 mg/ml). The medium is eliminated, 100 μl DMSO is added which permit to dissolve the converted dye (formazan). The absorbance is measured by spectrophotometry at 570 nm (purple); 630 nm (background noise). In order to ignore the background noise, the following calculation is performed: DOreelle=DO570nm−DO630nm. The results are then normalised with respect to the controls (100% and 0% live cells) and presented in the form of a mean+/−SEM. […]
On the technique in general: Tetrazolium dyes change colour on reduction, which living cells bring about.

For series [2] the following is noted: in vivo; cited from earlier work.
Series [3] addresses T2, wild-type CFTR (Homo sapiens, UniProt P13569).
T2 construct: Calu-3 cells are human lung epithelial cells expressing the wild-type CFTR gene; endogenous in cells; host or cells: Calu-3 human lung epithelial cells
In words: iodide efflux, CFTR activity in Calu-3 cells (test as activator). Format: cell-based. Conditions: n=8, controls forskoline 5 μM, MPB-91 250 μM. On the procedure: (§1) Calu-3 cells: Calu-3 cells are human lung epithelial cells expressing the wild-type CFTR gene.
(§2) Measurements of chloride ion transport in the cells were performed using the radioactive iodide efflux technique (Becq et al., Journal of Biological Chemistry 274, 27415-27425 (1999); Dormer et al., Journal of Cell Science 114, 4073-4081 (2001). The ^125I tracer is incorporated into the intracellular milieu. Then, the quantity of radiotracer coming out of the cell is then measured after adding various pharmacological agents. Iodide is used as a tracer of chloride ion transport. ^125I has the advantage of being short-lived compared to other markers such as ^35Cl (respective half-lives: […] and 300,000 years).
(§3) The cells are incubated in an appropriate medium in 24-well plates. The cells are rinsed twice with efflux medium (136.6 mM NaCl, 5.4 mM KCl, 0.3 mM KH2PO4, 0.3 mM NaH2PO4, 4.2 mM NaHCO3, 1.3 mM CaCl2, 0.5 mM MgCl2, 0.4 mM MgSO4, 10 mM HEPES, 5.6 mM D-glucose) in order to eliminate dead cells, which release radioactivity in an anarchic fashion. […] The following steps are performed using a robot (MultiPROBE, Packard): the loading medium is rinsed with efflux medium in order to eliminate extracellular radioactivity. […] The radioactivity present in the haemolysis tubes is measured as counts per minute (cpm) using a gamma counter (Cobra II, Packard). […]

The target of series [4] is T1, delF508-CFTR. In words: immunolabelling, cellular localisation of delF508-CFTR in CF15 cells. Conditions: 100 μM. Format: cell-based. The method, then:
Immunolabelling allows visualising the cellular localisation of the CFTR protein by an anti-CFTR primary antibody (Ab), and a secondary Cy3-labelled fluorescent antibody directed against the primary antibody.
The cells are first seeded on cover slips in an appropriate culture medium. The cells are then washed 3 times with TBS (157 mM NaCl, […] Tris base, pH 7.4) of 5 min. each time and then fixed by adding 3% TBS-paraformaldehyde for 20 min. After 3 washes with TBS (5 min), the cells are incubated with 0.1% TBS-triton (10 min) to make holes in the cell membrane, and then washed 3 times with TBS before being exposed to 0.5% TBS-BSA-0.05% saponin for 1 hr. The cells are then incubated with the primary anti-CFTR C terminal antibody (2 μg/ml) for 1 hr. The cells are washed 3 times (5 min. each) with TBS-BSA-saponin before incubating with the GAM-cy3 secondary antibody ( 1/400) for 1 hr. After 2 TBS washes (5 min. each), the nuclei are labelled by incubating with Topro3 ( 1/1,000) for 5 min. Finally, the cover slips can be mounted on a glass slide after 3 final TBS washes of 5 min. each. The slides are observed with a confocal microscope (Bio-Rad) using laser excitation at appropriate wave-lengths. In order to differentiate Cy3 from Topro3 labelling, the colour of the Topor3 fluorescence has been changed to blue (colour of the nuclei). […]

For series [5], the target named is T2, wild-type CFTR. Briefly: iodide efflux, CFTR addressing in Calu-3 cells after 2 hrs treatment. The format is cell-based. The following applies: Calu-3 cells treated for 2 hrs, 100 μM. On the procedure: as §1, §2, §3
Another series relates to GSK-3. Conditions: cited from earlier work.

Molecules are shown by their SMILES.

T1 sequence (P13569 with tags, fused parts or gaps DEL508-508): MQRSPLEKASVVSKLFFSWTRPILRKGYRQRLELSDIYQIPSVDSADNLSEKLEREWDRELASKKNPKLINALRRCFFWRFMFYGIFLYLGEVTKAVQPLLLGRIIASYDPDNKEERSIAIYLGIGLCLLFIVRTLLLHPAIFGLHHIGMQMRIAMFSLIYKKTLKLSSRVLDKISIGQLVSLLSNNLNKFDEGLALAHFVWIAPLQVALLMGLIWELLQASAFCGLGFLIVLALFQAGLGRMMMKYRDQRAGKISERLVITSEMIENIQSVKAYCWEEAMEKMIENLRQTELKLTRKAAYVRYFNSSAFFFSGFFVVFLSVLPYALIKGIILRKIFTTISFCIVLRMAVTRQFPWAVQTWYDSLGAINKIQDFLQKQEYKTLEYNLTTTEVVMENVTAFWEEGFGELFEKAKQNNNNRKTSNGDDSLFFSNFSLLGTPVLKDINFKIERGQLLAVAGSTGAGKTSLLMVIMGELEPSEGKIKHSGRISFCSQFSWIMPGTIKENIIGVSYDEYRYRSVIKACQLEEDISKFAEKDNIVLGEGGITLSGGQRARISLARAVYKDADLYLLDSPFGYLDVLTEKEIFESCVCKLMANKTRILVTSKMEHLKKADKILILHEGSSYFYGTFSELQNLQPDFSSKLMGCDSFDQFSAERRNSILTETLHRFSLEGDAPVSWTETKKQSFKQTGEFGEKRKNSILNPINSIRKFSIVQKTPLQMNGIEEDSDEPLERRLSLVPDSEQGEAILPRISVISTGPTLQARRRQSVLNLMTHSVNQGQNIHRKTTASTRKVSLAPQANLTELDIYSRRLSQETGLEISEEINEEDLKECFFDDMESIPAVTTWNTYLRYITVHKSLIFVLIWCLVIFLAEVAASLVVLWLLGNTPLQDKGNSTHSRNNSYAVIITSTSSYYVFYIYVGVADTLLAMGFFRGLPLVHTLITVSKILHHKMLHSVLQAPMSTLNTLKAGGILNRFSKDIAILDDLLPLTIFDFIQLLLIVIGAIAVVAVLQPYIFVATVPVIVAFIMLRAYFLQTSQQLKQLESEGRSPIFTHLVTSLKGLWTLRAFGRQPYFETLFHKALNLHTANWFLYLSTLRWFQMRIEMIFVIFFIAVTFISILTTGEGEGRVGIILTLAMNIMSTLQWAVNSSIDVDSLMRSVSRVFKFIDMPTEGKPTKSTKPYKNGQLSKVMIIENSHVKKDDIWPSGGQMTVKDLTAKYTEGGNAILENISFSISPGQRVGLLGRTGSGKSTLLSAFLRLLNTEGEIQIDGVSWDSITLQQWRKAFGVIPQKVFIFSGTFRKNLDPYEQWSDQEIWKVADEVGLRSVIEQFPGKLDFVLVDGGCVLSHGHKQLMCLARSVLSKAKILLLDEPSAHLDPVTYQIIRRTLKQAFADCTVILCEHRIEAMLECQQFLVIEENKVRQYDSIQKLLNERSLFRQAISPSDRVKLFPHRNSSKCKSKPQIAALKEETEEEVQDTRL
T2 sequence (P13569 whole entry): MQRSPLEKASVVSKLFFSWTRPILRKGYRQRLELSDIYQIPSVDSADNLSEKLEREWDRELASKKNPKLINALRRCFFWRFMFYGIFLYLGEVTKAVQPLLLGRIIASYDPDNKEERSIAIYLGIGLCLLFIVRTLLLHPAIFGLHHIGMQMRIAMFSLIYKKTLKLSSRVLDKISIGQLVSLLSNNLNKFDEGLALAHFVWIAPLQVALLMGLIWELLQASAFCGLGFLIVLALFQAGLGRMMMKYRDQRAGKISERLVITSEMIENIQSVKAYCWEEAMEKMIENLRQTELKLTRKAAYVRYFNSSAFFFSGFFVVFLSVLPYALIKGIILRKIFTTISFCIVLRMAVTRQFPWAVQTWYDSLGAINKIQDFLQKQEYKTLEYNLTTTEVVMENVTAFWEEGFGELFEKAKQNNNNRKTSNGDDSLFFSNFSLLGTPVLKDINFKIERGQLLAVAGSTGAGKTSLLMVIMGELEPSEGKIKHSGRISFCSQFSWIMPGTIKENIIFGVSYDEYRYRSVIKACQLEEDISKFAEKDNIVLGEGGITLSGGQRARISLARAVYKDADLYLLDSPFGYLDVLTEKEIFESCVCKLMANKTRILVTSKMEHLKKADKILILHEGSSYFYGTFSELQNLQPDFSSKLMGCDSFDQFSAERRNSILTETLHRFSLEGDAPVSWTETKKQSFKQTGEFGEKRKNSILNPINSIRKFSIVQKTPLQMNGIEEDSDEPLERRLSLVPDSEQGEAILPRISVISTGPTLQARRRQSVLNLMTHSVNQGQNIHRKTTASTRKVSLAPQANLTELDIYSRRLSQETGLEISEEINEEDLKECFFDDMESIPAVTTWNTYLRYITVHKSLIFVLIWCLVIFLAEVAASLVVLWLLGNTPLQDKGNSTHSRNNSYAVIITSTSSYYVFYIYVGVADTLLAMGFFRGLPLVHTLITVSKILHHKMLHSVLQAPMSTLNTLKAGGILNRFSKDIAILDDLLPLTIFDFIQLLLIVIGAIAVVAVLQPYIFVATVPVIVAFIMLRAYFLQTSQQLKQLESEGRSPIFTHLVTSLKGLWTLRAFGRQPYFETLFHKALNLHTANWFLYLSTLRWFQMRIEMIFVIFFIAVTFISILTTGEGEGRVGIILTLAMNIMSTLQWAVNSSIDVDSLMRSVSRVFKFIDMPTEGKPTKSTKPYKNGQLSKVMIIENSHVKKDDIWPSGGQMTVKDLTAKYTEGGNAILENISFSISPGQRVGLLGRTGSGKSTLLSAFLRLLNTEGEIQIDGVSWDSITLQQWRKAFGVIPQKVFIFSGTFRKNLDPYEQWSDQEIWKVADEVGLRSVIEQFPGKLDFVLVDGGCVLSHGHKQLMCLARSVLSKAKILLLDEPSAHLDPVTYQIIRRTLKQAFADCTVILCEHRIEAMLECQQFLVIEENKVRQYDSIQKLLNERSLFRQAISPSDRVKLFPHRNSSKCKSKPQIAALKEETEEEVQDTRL

On to `COc1ccc(Cl)cc1C(=O)NCCc1ccc(S(=O)(=O)NC(=O)NC2CCCCC2)cc1` [glibenclamide], for which, at delF508-CFTR [1], the “effect of known CFTR inhibitors on delF508 activity after treatment with kenpaullone” value (“effect of known CFTR inhibitors” for short) was “blocked”.
Consider `O=S(=O)(O)c1cc(N=C=S)ccc1C=Cc1ccc(N=C=S)cc1S(=O)(=O)O` [DIDS], for which the “effect of known CFTR inhibitors” value at delF508-CFTR [1] is “insensitive”.
For the molecule `O=C1Cc2c([nH]c3ccc(Br)cc23)-c2ccccc2N1` [kenpaullone], the “cell viability (MTT)” value with CHO-WT cells is given as “viable at all concentrations”. Besides, the toxicity in animals entry in series [2] was “only very slight toxicity”. At delF508-CFTR [1], the EC50 (as a rule, the concentration needed to bring the measured effect to its halfway point) worked out at 22 ± 1.7 µM and the “delF508-CFTR activity (iodide efflux) normalised to MPB-91 standard treatment” value is on record as “higher than that obtained with MPB-91”. Moreover, the “activation of wild-type CFTR or other anionic transporter” value at wild-type CFTR [3] is listed as “not found to be an activator”. The “localisation of delF508 protein” value at delF508-CFTR [4] is “redirect the delF508 protein towards the membrane”. Moreover, at wild-type CFTR [5], the “CFTR activity after treatment (wild-type CFTR addressing)” value was “not significantly different from the controls”. Besides, the “selectivity for GSK-3 inhibition” value with GSK-3 is “highly selective”.
As for `O=C(O)c1ccccc1Nc1ccccc1` [DPC], on delF508-CFTR [1], the “effect of known CFTR inhibitors” value is reported as “blocked”.
As to `O=C1Cc2c([nH]c3ccc([N+](=O)[O-])cc23)-c2ccccc2N1` [alsterpaullone], at delF508-CFTR [1], the “delF508-CFTR activity (iodide efflux) normalised to MPB-91 standard treatment” value is listed as “no effect”.
